In general, Ki refers to the dissociation constant of the complex between target and ligand, obtained from inhibition or displacement. Low readings indicate tighter binding, high ones weaker binding.

Data on one compound can be found in BindingDB's records for patent US10538523 (PFIZER LIMITED, 2020).

The test addresses T1, Gamma-aminobutyric acid receptor subunit alpha-2 (Homo sapiens, UniProt P18507+P47869+P47870).
T1 sequence (P47869 whole entry): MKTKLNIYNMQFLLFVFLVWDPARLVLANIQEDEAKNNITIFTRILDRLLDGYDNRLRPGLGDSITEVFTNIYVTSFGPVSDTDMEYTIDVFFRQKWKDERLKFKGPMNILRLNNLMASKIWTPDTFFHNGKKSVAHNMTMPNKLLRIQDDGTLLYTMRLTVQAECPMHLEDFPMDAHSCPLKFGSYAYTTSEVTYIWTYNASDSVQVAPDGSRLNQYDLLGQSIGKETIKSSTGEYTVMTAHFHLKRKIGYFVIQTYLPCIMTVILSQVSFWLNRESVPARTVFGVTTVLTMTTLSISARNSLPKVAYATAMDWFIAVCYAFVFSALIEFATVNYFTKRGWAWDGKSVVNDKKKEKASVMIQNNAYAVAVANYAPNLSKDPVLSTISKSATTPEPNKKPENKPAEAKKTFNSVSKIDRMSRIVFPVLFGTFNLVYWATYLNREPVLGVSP
Description: Binding Assay. Here is the method:
100 ul of radioligand and 100 ul of membrane in 50 mM Tris-HCl and 0.05% F127 with 1 ul of test compound was incubated for 2 hours to allow the reaction to achieve equilibrium, and then harvested onto filter plates, dried and counted on a TopCount NXT. The data was analysed, and the Ki values were presented as the geometric mean of at least two replicates.

`CCn1ncc2c(-c3ccc(F)c(-c4cc5c(cc4OC)C(=O)N(C)C5)c3)cnnc21` [US10538523, Example 3] registered a Ki of 11.8 nM.
